From paper PMC7456477, “Pharmacokinetic Study of Thirteen Ingredients after the Oral Administration of Flos Chrysanthemi Extract in Rats by UPLC-MS/MS” (BioMed Research International, 2020)

How the values were obtained:
[1] = Stability of analytes in rat plasma (QC samples under four storage conditions); format: in vitro ADME; details: n = 6
Procedure: To study the stability of all compounds in rat plasma, low, medium, and high concentrations of QC samples were tested under the following test conditions: stored at an autosampler for 12 hours, stored at room temperature for 6 hours, put through three freeze/thaw cycles, and stored at -80°C for 14 days. Three QC concentrations were tested for each of the above conditions.
The stability of all 13 analytes during sample collection and processing was evaluated with the various storage conditions being tested on spiked plasma samples at three QC concentrations.

[2] = Pharmacokinetic study in rat plasma after oral administration of Flos Chrysanthemi extract (UPLC-MS/MS); format: in vivo, Sprague-Dawley rats; details: rats, oral Flos Chrysanthemi extract 10 g/kg; for Detection in plasma over the sampling time: result in words; for AUC(0-inf) / Cmax / Tmax / half-life / AUC / k el: male, Sprague-Dawley, rat; for AUC: read-out: AUC(0 − tn); for k el: read-out: Ke (converted)
Procedure: Six male Sprague-Dawley rats (250 ± 5 g) were purchased from Huafukang Bioscience Co., Inc. (Beijing, China). The rats were adapted to the facility for a week. Before the experiments, rats were fasted for 12 h, although drinking water was readily accessible. Flos Chrysanthemi extract was dissolved in CMC-Na aqueous solution and orally administered to the animals once at 10 g/kg. Blood samples (220 μL) were taken from the orbital venous plexus of rats at 0, 0.03, 0.08, 0.17, 0.25, 0.5, 1, 2, 4, 6, 8, 10, 12, and 24 h after extract administration. Blood samples were promptly centrifuged at 6000 rpm for 10 min, and plasma samples were collected. The obtained plasma was stored at -80°C until analysis. “Drug and Statistics 3.0” software (Medical College of Wannan, China) was used to calculate pharmacokinetic parameters. The animal protocol was approved by the Animal Ethics Committee of Tianjin University of Traditional Chinese Medicine (TCM-LAEC20190056).
Plasma samples from rats orally administered with Flos Chrysanthemi extract (10.0 g/kg) were analysed with UPLC-MS/MS. Plasma concentration-time curves are shown in Figure 3, and the primary pharmacokinetic parameters of each analyte are summarized in Table 6.

[3] = spiked concentration 1000 ng/mL
[4] = spiked concentration 4000 ng/mL

| SMILES | Measured concentration, -80°C for 14 days ([1]; spiked concentration 5 ng/mL) [ng/mL] | Measured concentration, Autosampler for 12 h ([1]; spiked concentration 5 ng/mL) [ng/mL] | Measured concentration, Room temperature for 6 h ([1]; spiked concentration 5 ng/mL) [ng/mL] | Measured concentration, Three freeze-thaw cycles ([1]; spiked concentration 5 ng/mL) [ng/mL] | Measured concentration, -80°C for 14 days ([1]; spiked concentration 50 ng/mL) [ng/mL] | Measured concentration, Autosampler for 12 h ([1]; spiked concentration 50 ng/mL) [ng/mL] | Measured concentration, Room temperature for 6 h ([1]; spiked concentration 50 ng/mL) [ng/mL] | Measured concentration, Three freeze-thaw cycles ([1]; spiked concentration 50 ng/mL) [ng/mL] | Measured concentration, -80°C for 14 days [1, 3] [ng/mL] | Measured concentration, Autosampler for 12 h [1, 3] [ng/mL] | Measured concentration, Room temperature for 6 h [1, 3] [ng/mL] | Measured concentration, Three freeze-thaw cycles [1, 3] [ng/mL] | AUC(0-inf) ([2]; plasma, n = 6) [ng·h/mL] | Cmax ([2]; plasma, n = 6) [ng/mL] | Tmax ([2]; plasma, n = 6) [h] | half-life ([2]; plasma, n = 6) [h] | AUC ([2]; plasma, n = 6) [ng·h/mL] | k el ([2]; plasma, n = 6) [s⁻¹] | other results |
| --- | --- | --- | --- | --- | --- | --- | --- | --- | --- | --- | --- | --- | --- | --- | --- | --- | --- | --- | --- |
| COc1ccc(-c2cc(=O)c3c(O)cc(O)cc3o2)cc1 [Acacetin] | 4.5 ± 0.1 | 5.3 ± 0.1 | 4.6 ± 0.1 | 5.8 ± 0.1 | 50.5 ± 0.7 | 47.8 ± 0.7 | 50.3 ± 0.8 | 50.2 ± 5.7 | 977.4 ± 57.9 | 1030.3 ± 4.9 | 1126.2 ± 9.5 | 1032.7 ± 5.6 | – | – | – | – | – | – | Detection in plasma over the sampling time [2]: detected only at the first few blood sampling points |
| O=c1cc(-c2ccc(O)cc2)oc2cc(O[C@@H]3O[C@H](CO)[C@@H](O)[C@H](O)[C@H]3O)cc(O)c12 [Apigenin 7-glucoside] | 5.1 ± 0.2 | 4.3 ± 0.1 | 5.9 ± 0.1 | 5.6 ± 0.4 | 51.1 ± 0.4 | 44.5 ± 0.7 | 50.5 ± 1.0 | 53.7 ± 0.6 | 1108.3 ± 25.6 | 1077.6 ± 9.6 | 1086.7 ± 12.9 | 1112.8 ± 7.2 | 1470 ± 614 | 96.4 ± 24.8 | 0.69 ± 0.49 | 13.9 ± 10.2 | 1320 ± 489 | 6.94e-05 | – |
| O=c1cc(-c2ccc(O)cc2)oc2cc(O)cc(O)c12 [Apigenin] | 5.2 ± 0.1 | 5.4 ± 0.2 | 4.9 ± 0.1 | 5.7 ± 0.1 | 49.3 ± 1.9 | 45.8 ± 1.3 | 49.3 ± 1.1 | 50.5 ± 0.4 | 1063.8 ± 62.8 | 987.0 ± 11.4 | 1112.4 ± 11.7 | 1086.4 ± 17.6 | 3090 ± 447 | 302 ± 87.1 | 0.5 | 11.1 ± 7.1 | 2900 ± 251 | 2.5e-05 | – |
| O=C(/C=C/c1ccc(O)c(O)c1)O[C@@H]1C[C@](O)(C(=O)O)C[C@@H](O)[C@H]1O [Chlorogenic acid] | 5.2 ± 0.1 | 5.1 ± 0.1 | 5.8 ± 0.1 | 5.8 ± 0.1 | 44.4 ± 0.3 | 43.5 ± 0.7 | 49.7 ± 2.3 | 54.7 ± 0.4 | 1117.1 ± 2.0 | 1084.8 ± 13.6 | 1079.2 ± 8.3 | 1123.5 ± 7.3 | 494 ± 205 | 194 ± 56.4 | – | 0.2 ± 0.17 | 426 ± 139 | 0.00112 | T max ([2]; plasma, n = 6): 0.25 ± 0.00 h |
| O=C(/C=C/c1ccc(O)c(O)c1)O[C@H]1[C@H](O)C[C@](O)(C(=O)O)C[C@H]1O [Cryptochlorogenic acid] | 5.2 ± 0.2 | 5.0 ± 0.2 | 5.3 ± 0.1 | 5.9 ± 0.1 | 46.7 ± 1.4 | 44.5 ± 1.3 | 49.1 ± 1.5 | 54.1 ± 0.3 | 1075.7 ± 52.9 | 1069.3 ± 16.2 | 1012.9 ± 11.1 | 1122.8 ± 6.8 | 431 ± 197 | 89.4 ± 45.3 | 0.61 ± 0.33 | 6.9 ± 3.4 | 319 ± 97.3 | 3.33e-05 | – |
| O=c1cc(-c2ccc(O)c(O)c2)oc2cc(O[C@@H]3O[C@H](CO)[C@@H](O)[C@H](O)[C@H]3O)cc(O)c12 [Cynaroside] | – | – | – | – | – | – | – | – | – | – | – | – | 19100 ± 20000 | 2550 ± 1120 | 6.38 ± 3.8 | 5.01 ± 4.44 | 19100 ± 19900 | 7.78e-05 | Measured concentration, -80°C for 14 days ([1]; spiked concentration 20 ng/mL): 21.1 ± 0.8 ng/mL; Measured concentration, Autosampler for 12 h ([1]; spiked concentration 20 ng/mL): 20.0 ± 0.2 ng/mL; Measured concentration, Room temperature for 6 h ([1]; spiked concentration 20 ng/mL): 20.6 ± 0.9 ng/mL; Measured concentration, Three freeze-thaw cycles ([1]; spiked concentration 20 ng/mL): 22.6 ± 1.0 ng/mL; Measured concentration, -80°C for 14 days ([1]; spiked concentration 200 ng/mL): 205.0 ± 4.0 ng/mL; Measured concentration, Autosampler for 12 h ([1]; spiked concentration 200 ng/mL): 203.4 ± 6.1 ng/mL; Measured concentration, Room temperature for 6 h ([1]; spiked concentration 200 ng/mL): 182.4 ± 0.6 ng/mL; Measured concentration, Three freeze-thaw cycles ([1]; spiked concentration 200 ng/mL): 219.8 ± 1.0 ng/mL; Measured concentration, -80°C for 14 days [1, 4]: 4060.3 ± 121.9 ng/mL; Measured concentration, Autosampler for 12 h [1, 4]: 4158.6 ± 15.3 ng/mL; Measured concentration, Room temperature for 6 h [1, 4]: 4360.1 ± 32.4 ng/mL; Measured concentration, Three freeze-thaw cycles [1, 4]: 4152.9 ± 34.1 ng/mL |
| COc1ccc([C@@H]2CC(=O)c3c(O)cc(O[C@@H]4O[C@H](CO[C@@H]5O[C@@H](C)[C@H](O)[C@@H](O)[C@H]5O)[C@@H](O)[C@H](O)[C@H]4O)cc3O2)cc1O [Hesperidin] | – | – | – | – | – | – | – | – | – | – | – | – | – | – | – | – | – | – | Measured concentration, -80°C for 14 days ([1]; spiked concentration 1 ng/mL): 1.1 ± 0.1 ng/mL; Measured concentration, Autosampler for 12 h ([1]; spiked concentration 1 ng/mL): 1.0 ± 0.1 ng/mL; Measured concentration, Room temperature for 6 h ([1]; spiked concentration 1 ng/mL): 1.1 ± 0.1 ng/mL; Measured concentration, Three freeze-thaw cycles ([1]; spiked concentration 1 ng/mL): 1.1 ± 0.1 ng/mL; Measured concentration, -80°C for 14 days ([1]; spiked concentration 10 ng/mL): 9.5 ± 0.2 ng/mL; Measured concentration, Autosampler for 12 h ([1]; spiked concentration 10 ng/mL): 8.8 ± 0.1 ng/mL; Measured concentration, Room temperature for 6 h ([1]; spiked concentration 10 ng/mL): 10.2 ± 0.4 ng/mL; Measured concentration, Three freeze-thaw cycles ([1]; spiked concentration 10 ng/mL): 10.0 ± 0.1 ng/mL; Measured concentration, -80°C for 14 days ([1]; spiked concentration 200 ng/mL): 209.5 ± 2.3 ng/mL; Measured concentration, Autosampler for 12 h ([1]; spiked concentration 200 ng/mL): 222.7 ± 2.0 ng/mL; Measured concentration, Room temperature for 6 h ([1]; spiked concentration 200 ng/mL): 213.7 ± 2.1 ng/mL; Measured concentration, Three freeze-thaw cycles ([1]; spiked concentration 200 ng/mL): 218.3 ± 0.7 ng/mL; Detection in plasma over the sampling time [2]: detected only at the first few blood sampling points |
